Measurements from patent US20120237600A1, “MULTILAYER PHARMACEUTICAL COMPOSITION THAT CAN BE DISPERSED IN WATER AND WHICH CONTAINS A COMBINATION OF ANTIMALARIAL AGENTS” (SANOFI, priority 2009, published 2012).

Assay: Compatibility of artesunate and ferroquine combined within one and the same tablet
Format: physicochemical
Conditions: color of artesunate goes from white to brown
Excerpt: However, artesunate and ferroquine are strongly incompatible if the two active ingredients are combined within one and the same tablet.

Compound: C[C@H]1[C@H](OC(=O)CCC(=O)O)O[C@@H]2O[C@@]3(C)CC[C@H]4[C@H](C)CC[C@@H]1[C@@]24OO3 [artesunate, Artesunate]
- stability of artesunate when combined with ferroquine within the same tablet: rapid increase in the level of artesunate degradation products
